# Entries after “also recorded” stand apart in the source; their conditions may differ.
# What was measured:
# [1] = tested on: virus of mouse encephalomiocarditis; test: antiviral activity: suppression of cytopathic action of test-virus in L-41 and VERO cell cultures; format: cell-based; settings: L-41 and VERO cells
# Protocol: FIG. 7 Antiviral properties of de novo proteins and interferons in cell cultures L41 (human mononuclear leucosis) and VERO (kidney of green simian). The activity of preparations was determined as a minimal concentration leading to a 50% delay of the virus of mouse encephalomiocarditis cytopathic action. The average values of three independent experiments are shown ± the standard deviations.
# FIG. 8 Antiviral properties of de novo proteins in the cell cultures L-41 (human mononuclear leucosis) and VERO (kidney of green simian). […] The average values of three independent experiments are shown ± standard deviations.
# The average values of three independent experiments are shown ± standard deviations.
# (§1) Antiviral and cytotoxity properties of obtained proteins. Testing of antiviral activity of the proteins was carried out in vitro monitoring the ability of the preparation to suppress cytopathic action of the test-virus (Ershov F., 1996, Interferon system: norm and pathology, Moscow, Medicine). Two cell lines were used in experiments: cells of human mononuclear leucosis L41 and green simian kidney VERO.
# as §1, with “Antiviral” for “Antiviral and cytotoxity”, “synthetic linear peptides.” for “obtained proteins.”, “synthetic linear peptides” for “proteins”, “L-41” for “L41”
# [2] = tested on: human T-lymphoblastoid cell line MT4; settings: cited from earlier work
Substance,antiviral activity (in words) [1],concentrations suppressing proliferation of MT4 [2],antiviral activity compared with human interferon-α2 ([1]; minimal concentration giving 50% delay of cytopathic action)
LKDRHDF (human interferon alfa2),demonstration of antiviral activity,,
LKEKKYSP (human interferon alfa2) [reference compound],demonstration of antiviral activity,10^−9-10^−8 M,
LKEKKYSP-Ser-Ser-LKDRHDF (LKEKKYSPSSLKDRHDF; human interferon alfa2),demonstration of antiviral activity,,only one order of magnitude less; also recorded: practically completely reproduces antiviral properties of human interferon-α2

# Reference: US20060165654A1, “Peptides and recombinant proteins mimicking interferons” (priority 2002, published 2006)
